The text below walks through data of patent US12673063B2, “Methods and materials for treatment of fibrosis” (Massachusetts Eye and Ear Infirmary, priority 2020, dated 2026).

One experiment concerns A549 cells. The experiment in a line: CyQUANT Direct Cell Proliferation Assay, A549. Type of experiment: cell-based, human. How it is done:
(§1) Human type II alveolar epithelial cells (A549) were a generous gift from Dr. Lagares (Mass General Hospital). Cells were maintained in low glucose-DMEM containing 10% FBS, 2 mM L-glutamine, 100 U/ml penicillin and 100 μg/ml streptomycin at 37° C. in a humidified 5% C02 atmosphere. Confluent cultures of cells were pretreated with Ro24-7429 for 24 hours followed by stimulation with 5 ng/ml of TGF-β1.
We tested the effect of RUNX1 inhibition on the proliferation of a human alveolar basal epithelial cell line (A549), primary human-derived pulmonary alveolar epithelial cells (HPAEpi), and in human-derived primary culture lung fibroblasts (HLF). For specific analyses we used escalating doses of Ro24-7429 (50-200 μM), Ro5-3335 (150 μM), pirfenidone (500 μg/ml) and nintedanib (5 μM), the latter two are currently approved drugs for IPF.

Experiment [1] has as its system bleomycin-induced inflammation. In words: Bleomycin-induced lung inflammation, infiltration of neutrophils and macrophages. It counts as in vivo, C57BL/6J mice. The following applies: 1-week and 2-week time points. How it is done: (§2) Bleomycin sulphate (Sigma-Aldrich) was dissolved in sterile 0.9% saline and administered as a single dose of 0.05 units in a total volume of 50 μl in saline solution per animal intratracheally (IT). Control animals received 0.05 mL saline alone. A preventative regimen was chosen and each animal received either Ro24-7429 drug 70 mg/kg or vehicle every other day 7 days before the induction of the model and continued until the end of the experiment for 1 week or 2 weeks. All animals received intratracheal instillations of either bleomycin on day 0 as previously described (52-55). A separate experiment was performed with similar drug-vehicle treatments and IT saline instillation for controls. The surgeon performing IT instillations was masked to the identity of the treatment groups.
Paraffin embedded sections were processed for immunofluorescence using the following antibodies: anti-RUNX1 (1:100; LS-B13948; Lifespan Biosciences, Seattle, WA), anti-human a-SMA antibody (1:200; NB500-170; Novus Biologicals, Ontario, Canada), anti-Iba1 antibody (1:100; ab5076; Abcam, Cambridge, United Kingdom), anti-Ly6g antibody (1:100; ab25377; Abcam, Cambridge, United Kingdom), and Isolectin GS-IB4 Alexa Fluoro 594 Conjugate (1:250; 121413; Invitrogen, Carlsbad, CA). […]
We evaluated the potential effect of Ro24-7429 on bleomycin-induced inflammation 1 week and 2 weeks after lung injury (FIGS. 1I-J and 2).

The test system of a further experiment is N-Cadherin in A549 cells. In words: TGF-β1-induced N-Cadherin upregulation, Western blot, A549. It counts as cell-based, human. The following applies: A549, 150 μM and 200 μM, 24 hours prior to TGF-β1 exposure. How it is done: as §1
Protein concentration was determined by Pierce Bicinchonic acid (BCA) protein assay kit (ThermoFisher; 23227) according to the manufacturer's instructions. 20 μg of total cell lysates were prepared in 4 μL 1M 1,4-dithiothreitol (DTT; Sigma Aldrich) and 10 μL Laemmli buffer (Boston Bioproducts) to a final volume of 40 μL and denatured 5 min at 90° C. Samples were separated electrophoretically for 1 h at 70 V using 4-20% pre-cast gradient gels (Mini-PROTEAN TGX, Bio-Rad) and SDS-Tris-Glycine buffer (Bio-rad). Proteins were transferred to 0.45 μm nitrocellulose membranes for 1 h at 70 V in ice cold […] Tris-Glycine buffer (Bio-rad). Membranes were blocked for 1 h with Odyssey Blocking Buffer (LI-COR Biosciences). […]
We evaluated the effect of RUNX1 inhibition on the expression of fibrosis markers induced by TGF-β1, a critical mediator of PF (30), in A549 cells at 24, 48 and 72 hours. […]
(Immunoblotting shows a protein as a band on a membrane.)

The test system of experiment [2] is bleomycin-induced lung fibrosis. In words: Bleomycin-induced lung fibrosis model, H&E, Masson's trichrome, Ashcroft score. Type of experiment: in vivo, C57BL/6J mice. How it is done:
Animal procedures were approved by the Institutional Animal Care and Use Committee (IACUC) of Massachusetts Eye and Ear, and performed in accordance with the Association for Research in Vision and Ophthalmology Statement for the Use of Animals in Ophthalmic and Vision Research. C57BL/6J male and female mice of 6-8 weeks-old were purchased from Jackson Laboratories. For all procedures, mice were anesthetized by intraperitoneal injection of Ketamine/xylazine mixture (100/50 mg/Kg).
as §2
Lung samples were fixed in 10% neutral buffered formalin (Sigma, HT501128-4L), for 24 hours for histological analysis. Fixed lungs were paraffin embedded and sectioned (5 μm-thick) and stained with hematoxylin and eosin (H&E) to examine gross morphology and Masson's trichrome stain to visualize collagen deposition and examined by microscopy. Lung fibrosis was measured using quantitative histology using the Ashcroft method of analysis. All measurements were performed by two independent graders in a blinded fashion. Images were acquired with the Nikon Eclipse E800 microscope with an Olympus DP70 Camera. Adjacent 2× images of the lung were stitched together using Adobe Photoshop CS6.
Bleomycin triggers a strong inflammatory response in the lung at day 7 characterized by infiltration with neutrophils and macrophages, vascular leakage, and up-regulation of cytokines, chemokines and other inflammatory mediators. By day 14, bleomycin treated mice are expected to develop significant lung fibrosis including disruption of the normal lung architecture, thickening of the alveolar septa, and excessive extracellular matrix and collagen deposition around the alveolar structures. We examined the effects of escalating doses of Ro24-7429 (17.5, 35 and 70 mg/kg per day) on bleomycin-induced lung fibrosis by H&E and Masson's trichrome staining in mice at day 14 (FIG. 1A-B, FIG. 5A-B). These doses were estimated to be equivalent to those used in the Ro24-7429 human trial, 75, 150 or 300 mg per day, respectively (28).

As to `CNC1=Nc2ccc(Cl)cc2C(c2ccc[nH]2)=NC1` [Ro24-7429, 3H-1,4-Benzodiazepin-2-amine, 7-chloro-N-methyl-5-(1H-pyrrol-2-yl)-], the “percent live cells compared to vehicle treated” value in the experiment with A549 cells (48 hours, Ro5-3335 150 μM, Ro24-7429 50 μM-200 μM, Pirfenidone 500 μg/ml, Nintedanib 5 μM) is recorded as “significant reduction”. Also, the reduction in proliferation was determined as 62% with A549 cells (A549, 48 hours, 50 μM); 68% in the experiment on A549 cells (A549, 48 hours, 200 μM); 82% with A549 cells (A549, 72 hours, 200 μM). Further, the “infiltration of inflammatory cells, neutrophils and macrophages” value in experiment [1] is given as “reduced infiltration”. In addition, the “TGF-β1-induced N-Cadherin upregulation” value in the experiment on N-Cadherin in A549 cells is given as “effectively prevented”. For the same compound, the “effect on lung phenotype / progression of fibrosis” value in experiment [2] (17.5 mg/kg, day 14) is “slight effect”. In experiment [2] (35 mg/kg, day 14), the “effect on the progression of fibrosis” value was “moderate but variable effect”. Also, in experiment [2] (70 mg/kg, day 14), the Ashcroft fibrosis score entry is listed as “significant reduction”. In addition, the “lung structures after bleomycin instillation” value in experiment [2] (70 mg/kg, day 14, H&E and Masson's trichrome) was “robust preservation of lung structures”.
